Consider 63 compounds from PubChem BioAssay AID2305 (GlaxoSmithKline (GSK), 2010).

The test system of the experiment is P. falciparum 3D7 growth, pLDH absorbance. As to the kind of experiment: P. falciparum 3D7 growth inhibition, dose response, strain 3D7 (AID 2305).

In the case of `Cc1c(F)cc(C(=O)NC2CC2)cc1-c1ccc2c(c1)c(C)nn2S(=O)(=O)c1cccs1`, the IC50 came out at 940 nM.
Under `O=C(NC1CCN(CCN2CCc3ccccc3CC2)CC1)c1ccc(-c2ccc(C(F)(F)F)cc2)cc1` stands 930 nM; under `Cc1cc(NC(=O)CCCN2CCN(c3cccc(Cl)c3Cl)CC2)ccc1N1CCN(C(C)C)CC1`, 760 nM.
Regarding `Cc1cc(Nc2c(C(N)=O)cnc3cc(-c4ccoc4)ccc23)ccc1N1CCN(C)CC1`, the IC50 turned out to be 800 nM.
In the case of `CCOc1ccc(-c2nonc2NC(=O)CC(C)C)cc1OCC`, the IC50 was found to be 980 nM.
`Oc1cccc(CCNCCCCCCNCCc2ccc(Cl)cc2)c1` showed an IC50 of 770 nM.
The result for `OC(CNC1CCCCC1)Cn1c2ccccc2c2ccccc21` (stereo not drawn) reads 990 nM.
The result for `NC(N)=NC(=O)Nc1cc(Cl)c(Br)c(Cl)c1` reads 470 nM; that for `CN1CC=C(c2csc3ccc(NC(=O)Nc4ccc(-c5ccncc5)c(Cl)c4)cc23)CC1`, 680 nM.
`FC(F)(F)c1ccc2nc(-c3ccc(-c4cccc(CNCc5ccccc5)c4)s3)[nH]c2c1` displayed an IC50 of 150 nM.
Under `Cc1nc2nc(N)nc(N)c2c(C)c1Cc1ccc(O)cc1` stands 240 nM.
The result for `Cc1cc(NC(=O)NCCN2CCC(NS(=O)(=O)c3ccccc3F)CC2)c2ccccc2n1` reads 950 nM; that for `CC1(C)C(N(O)C(=O)Nc2ccc(Cl)c(Cl)c2)N(c2ccc(Cl)c(Cl)c2)C(=O)N1CCc1ccccc1` (stereo not drawn), 820 nM; that for `Cc1noc(C)c1-c1cccc(CNCc2cccc(-c3csc(-c4nc5ccccc5[nH]4)c3)c2)c1`, 260 nM.
`CC(C)(C)c1ccc(NC(=O)c2cccc(CN3CCCN(Cc4cccc(Cl)c4)CC3)c2)cc1` registered an IC50 of 1000 nM.
`COc1ccc(CNCCc2cccs2)cc1-c1ccc(S(=O)(=O)NCCN2CCCC2)cc1` showed an IC50 of 650 nM.
For `N#Cc1ccc(-c2ccc(C(=O)NCCCCN3CCC(c4ccncc4)CC3)cc2)cc1`, the IC50 was 810 nM.
In the case of `Cc1ccc(C2=NNC3(S2)C(=O)N(C)c2ccccc23)cc1` (stereo not drawn), the IC50 is 1020 nM.
The result for `C#CC(C)(CO)N1CCCC1` (stereo not drawn) reads 380 nM; that for `Cc1cc(N[C@@H](Cc2ccccc2)C(=O)NCc2cccs2)nc(NCCc2cccnc2)n1`, 1010 nM; that for `O=S(=O)(c1ccc(OC(F)(F)F)cc1)C1C[C@H]2CC[C@@H](C1)N2S(=O)(=O)c1ccc(Cl)c(C(F)(F)F)c1` (stereo partly drawn), 560 nM.
The result for `O=C(Nc1nc(-c2ccccn2)cs1)c1ccc(Br)s1` reads 1060 nM.
Under `Cc1cc(Cl)ccc1NC(=O)Nc1ccc2nccc(N3CCN(C)CC3)c2c1` stands 390 nM; under `Cc1cc2nc(-c3ccc(/C=C/C(=O)NC4CCN(Cc5ccccc5)CC4)cc3)[nH]c2cc1C`, 590 nM; under `CCOC(=O)C1=C(C)N=c2sc(=Cc3cc(Cl)ccc3O)c(=O)n2C1c1ccc(OC)cc1` (stereo not drawn), 750 nM.
`Cc1cc(N2CCCC2)nc(/N=C(\N)Nc2cccc(C(F)(F)F)c2)n1` had an IC50 of 320 nM.
Under `CCN1CCC(NCc2ccc(-c3ccc(Cl)cc3)cc2)CC1` stands 1020 nM; under `CN(C)Cc1ccc2cc(NC(=O)c3ccc(-c4ccc(Cl)cc4)cc3)ccc2c1`, 1340 nM.
Under `Cc1cc(NCCC(=O)Nc2ccccc2)nc(NCC2CCCCC2)n1` stands 840 nM; under `O=C(NCC1CCC(C(=O)NCc2cccc(C(F)(F)F)c2)CC1)c1ccc(O)c(-c2ccc(Cl)c(Cl)c2)c1` (stereo not drawn), 710 nM.
For `COc1cc(C(=O)N2CCOC(CCN3CCC[C@H]3C(=O)Nc3ccccc3)(c3ccc(Cl)c(Cl)c3)C2)cc(OC)c1OC` (stereo partly drawn), the half-inhibitory concentration (IC50) stood at 730 nM.
Under `O=C1c2cc(I)ccc2SC1c1ccccc1` (stereo not drawn) stands 820 nM; under `CCN(CC)CCN(Cc1ccc(-c2ccc(C(F)(F)F)cc2)cc1)C(=O)Cn1c(CCc2cc(F)cc(F)c2)nc(=O)c2ccccc21`, 980 nM; under `O=C(N[C@@H](Cc1ccccc1)C(=O)NCCN1CCCCC1)c1ccc(O)c(-c2cccc(C(F)(F)F)c2)c1`, 850 nM.
Under `Cc1cc2ncn(-c3nccc(NCc4cccnc4)n3)c2cc1C` stands 660 nM; under `CC(C)COc1cc(C(=O)Nc2cnc3ccccc3c2)ccc1[N+](=O)[O-]`, 780 nM.
The result for `O=C(Nc1ccc2c(ccn2C2CCCN(Cc3cc(F)cc(F)c3F)CC2)c1)c1ccco1` (stereo not drawn) reads 650 nM.
With `COc1cccc(Nc2nc(Nc3cccc(C#N)c3)cc(-c3ccncc3)n2)c1`, the IC50 was determined as 760 nM.
Under `O=C(NC1CCN(CCC(NC(=O)c2ccccc2)c2ccc(Cl)c(Cl)c2)CC1)c1ccc(Cl)cc1` (stereo not drawn) stands 1070 nM; under `O=C(Cc1ccccc1)NC(c1ccco1)c1cc(Cl)c2cccnc2c1O` (stereo not drawn), 690 nM; under `N#Cc1ccc(CN2CCC(Oc3ccc(NC(=O)c4cccs4)cc3Cl)CC2)cc1`, 580 nM.
The compound `CNC(=O)c1cnc(Nc2ccc(N3CCN(C)CC3)cc2)nc1Nc1cccc(OC)c1` registered an IC50 of 750 nM.
Under `C[C@]12CC3CC(Nc4nc(N5CCOCC5)nc5ccccc45)(C1)C[C@@](C)(C3)C2` stands 940 nM; under `O=C(NCCCCCN1CCC(c2c[nH]c3ccccc23)CC1)Nc1ccc(Cl)c(Cl)c1`, 920 nM; under `CC1(C)N=C(N)N=C(N)N1O`, 190 nM.
The result for `O=C(c1ccc(Cl)cc1Cl)N1CCCC(C(F)(F)F)C1` (stereo not drawn) reads 950 nM.
Under `Cc1[nH]c(C)c(-c2ccc(-c3ccccc3C(F)(F)F)nc2)c(=O)c1Br` stands 170 nM.
`O=C(/C=C/c1ccc(Cl)c(Cl)c1)NC1CCN(Cc2ccc(O)cc2)C1` (stereo not drawn) registered an IC50 of 950 nM.
Under `COC(=O)CCn1c(C2CCN(CC3CCC(NC(=O)/C=C/c4ccc(Cl)c(Cl)c4)CC3)CC2)nc2ccccc21` (stereo not drawn) stands 950 nM; under `Cc1cccc2[nH]c(-c3ccc(-c4cccc(CNCc5cnn(-c6ccccc6)n5)c4)s3)nc12`, 550 nM.
In turn, `COc1ccc(-c2nc3cccnc3n2CC(=O)Nc2c(C)cc(C)cc2C)c(OC)c1` returned an IC50 of 930 nM.
The result for `FC(F)(F)c1ccc2nc(-c3cccc(-c4ccc(CNCc5cnn(-c6ccccc6)n5)cc4)c3)[nH]c2c1` reads 1330 nM.
In the case of `O=C(Nc1cccc(-c2nn3ccccc3c2-c2ccnc(Nc3ccc(NCCCN4CCOCC4)c(F)c3)n2)c1)c1c(F)cccc1F`, the IC50 came to 260 nM.
Consider `O=C(C1CCCCC1)N1CCOC(CCN2CCC(c3ccccc3)CC2)(c2ccc(Cl)c(Cl)c2)C1` (stereo not drawn), for which the IC50 was found to be 930 nM.
Under `Fc1ccccc1C=NNc1ccnc2ccccc12` stands 890 nM; under `CCOC(=O)c1ccc(NC(=O)Nc2cccc(-c3ccc(-c4nc5ccc(C(F)(F)F)cc5[nH]4)cc3)c2)cc1`, 210 nM.
The result for `O=C(CSc1ccccn1)Nc1c(F)cccc1F` reads 1210 nM; that for `O=C1Nc2cccc3c2C1(CCCCCN1CC=C(c2c[nH]c4ccccc24)CC1)CCC3` (stereo not drawn), 740 nM.
Under `Cc1cccc2[nH]c(-c3ccc(-c4cccc(NC(=O)c5cnccc5C(F)(F)F)c4)cc3)nc12` stands 1000 nM.
For `NC(=NCCCc1ccccc1)c1cccc(C(N)=NCCCc2ccccc2)n1`, the half-inhibitory concentration (IC50) worked out at 1380 nM.
Under `N#Cc1ccc(C(=O)Nc2ccc(Cl)c(N3CCN(CCc4ccccc4)CC3)c2)cc1` stands 930 nM; under `COc1cc(NC(=O)c2c(-c3c(F)cccc3Cl)noc2C)c(OC)cc1Cl`, 860 nM.
As for `Cc1cc(OCC(=O)Nc2ccc(-c3nc4ccccc4[nH]3)cc2)cc(C)c1Cl`, the IC50 was determined as 740 nM.

As usually defined, the IC50 is the concentration that gives 50% inhibition. Low values mean greater potency in that assay, high ones weaker potency in that assay.
